Experimental findings from ChEMBL document CHEMBL3124756, “Hepatitis C virus NS5A replication complex inhibitors. Part 6: Discovery of a novel and highly potent biarylimidazole chemotype with inhibitory activity toward genotypes 1a and 1b replicons” (J Med Chem, 2014) are described below.

The nature of data set [1]: Clearance in rat at 2 mg/kg, iv. In kind it is ADME, organism-based. Particulars: in vivo. On the set-up: dose 2 mg/kg, route intravenous.
A short description of data set [2]: Oral bioavailability in rat at 5 mg/kg. In kind it is ADME, organism-based. Particulars: in vivo.
Data set [3] concerns Hepatitis C virus. Kind of data set: Antiviral activity against Hepatitis C virus genotype 1b expressing […] resistant-mutant infected in human HuH7 cells after 72 hrs by FRET assay. It counts as functional, organism-based, Hepacivirus hominis. Particulars: Huh-7, 72 h.
Data set [4] is described as follows: AUC (4 hrs) in rat at 5 mg/kg, po. In kind it is ADME, organism-based. The arrangement: time < 4 hr, dose 5 mg/kg, route oral. Particulars: plasma.
Data set [5] deals with Bovine viral diarrhea virus 1. Kind of data set: Antiviral activity against Bovine viral diarrhea virus infected in human HuH7 cells by luciferase reporter gene assay. In kind it is functional, organism-based. Particulars: Bovine viral diarrhea virus isolates and strains, Huh-7.
The nature of data set [6]: AUC (24 hrs) in rat at 5 mg/kg, po. It counts as ADME, organism-based. On the set-up: time < 24 hr, dose 5 mg/kg, route oral. The following applies: plasma.
A short description of data set [7]: Cytotoxicity against human HuH7 cells infected with HCV genotype 1b after 72 hrs by Alamar blue assay. In kind it is cell-based, Huh-7. In general terms: Alamar Blue is a resazurin reagent that responds to reducing activity.
Data set [8] has as its system Hepatitis C virus. Briefly: Antiviral activity against Hepatitis C virus genotype 1a infected in human HuH7 cells after 5 days by ELISA. In kind it is functional, organism-based, Hepacivirus hominis. The following applies: subtype 1a, Huh-7, 120 h. A general note: ELISA stands for enzyme-linked immunosorbent assay.
The subject of data set [9] is Hepatitis C virus. Kind of data set: Antiviral activity against Hepatitis C virus genotype 1b infected in human HuH7 cells after 72 hrs by FRET assay. Particulars: Huh-7, 72 h. It counts as functional, organism-based, Hepacivirus hominis.
The nature of data set [10]: Efflux ratio of permeability from basolateral to apical side over apical to basolateral side in human Caco2 cells. It counts as ADME, cell-based. Particulars: Caco-2. For orientation: Passage across Caco-2 layers is used to estimate intestinal permeability.

One may read the clearance as the volume of plasma or blood freed of the substance per unit of time. Lower therefore signals a low capacity for elimination. The bioavailability is the share of a dose that reaches the circulation, judged against a reference dose that is usually intravenous. Read a high bioavailability as much systemic uptake. By EC50 is commonly meant the concentration giving half of the maximal effect. A low value points to greater potency. A word on the AUC: it is the area under the concentration-time curve, a measure of exposure. A high value points to high exposure. The term CC50 denotes the concentration that lowers cell viability or growth by half. Low readings indicate greater toxicity to the cells, high ones lower toxicity to the cells. The efflux ratio is the permeability from basolateral to apical divided by that in the opposite direction, in the common usage. For the compound `COC(=O)N[C@@H](C(=O)N1CCC[C@H]1c1nc2cc(C#Cc3ccc4[nH]c([C@@H]5CCCN5C(=O)[C@H](NC(=O)OC)c5ccccc5)nc4c3)ccc2[nH]1)c1ccccc1`, the clearance in data set [1] was 1.1 mL/min/kg. In addition, the bioavailability in data set [2] was less than 1%. Also, the EC50 in data set [3] is greater than 3330 nM; in [5] it was greater than 10000 nM; in data set [8], 108 nM; in data set [9] it was 0.055 nM. The same compound showed an AUC at 4 h in data set [4] of 0.466 µM·h. This compound also gave an AUC at 24 h in data set [6] of 0.539 µM·h. In data set [7], this compound had a cytotoxic concentration (CC50) at 72 h greater than 10000 nM. Moreover, the efflux ratio in [10] is no less than 7.2.
